# Experiments:
# MDA-MB-231/TGL cells = assay: experimental tail vein lung metastasis assay, human breast cancer xenograft; type: in vivo, NSG mice
# Procedure: (§1) NSG mice were generated by the Jackson Laboratory. All mice were housed in accordance with the institutional guidelines. All procedures involving mice were approved by the institutional animal care and use committee of Weill Cornell Medicine. 1 × 10^5 or 5 × 10^4 MDA-MB-231/TGL cells in 150 µl PBS were injected into the tail veins of female NSG mice at the age of 7-8 weeks (n=5/group for 1× 10^5 cells and n = 6/group for 5 × 10^4 cells). 1× 10^4 8988T/TGL cells in 100 µl PBS were injected into spleen of NSG mice at age of 7-8 weeks (n=4/group, male and female) to observe the liver metastasis (G. Zhang, & Y. N. Du, Methods Mol Biol 1882, 309-320 (2019)). The spleen was removed after the injection. Starting one day after injection, mice were randomized into two groups. One group was kept in a regular mouse holding room (control), and the other group was put into a chamber delivering 250 ppm CO 3 hours daily. Mice were subjected to bioluminescent imaging using the In Vivo Imaging System Spectrum (PerkinElmer, Waltham, MA) at 0, 1, 3 days and then weekly after tumor cells were injected until the final time points, as described previously by Y. C. Du, D. S. Klimstra, & H. Varmus, PLoS One 4, e6932 (2009)). Luciferase signals were transformed to nature log scale before analysis. GEE method was used to test the overall difference of tumor growth over time. All analyses were performed in statistical software SAS Version 9.4 (SAS Institute, Cary, NC).
# Mouse tissues were removed and fixed in 10% buffered formalin overnight at room temperature. Formalin-fixed/paraffin-embedded sections (5-µm) were deparaffinized and rehydrated by passage through a graded xylene/ethanol series before staining. Immunochemistry was performed using the VECTASTAIN Elite ABC kit following the manufacturer’s instructions. Tumor number and tumor size were quantified by scanning the whole tissue slide of each mouse under microscope. The size of tumor area of each tumor was measured by the cellSens imaging software (Olympus, Tokyo, Japan). Total tumor area of each mouse or total tumor number of each mouse was plotted. The primary antibodies used were cleaved caspase 3 (1:333; Cell Signaling Tech (Cat. No. 9661), Danvers, MA) and Ki67 (1:1000, Vector Labs (Cat. No. VP-K451), Burlingame, CA).
# To determine whether 250 ppm CO inhibits cancer metastasis in vivo, an experimental tail vein metastasis assay with TNBC MDA-MB-231 cell line was performed. 0.1 million MDA-MB-231/TGL (luciferase reporter) cells were injected into the tail vein of the NOD/scid-lL2Rgc knockout (NSG) immunodeficient mice. Mice were randomly divided in to two groups after injection. […]
# 8988T/TGL cells = assay: orthotopic (intrasplenic) model of liver metastasis of PDAC; type: in vivo; conditions: 8988T/TGL cells intrasplenic, NSG mice, 5 days a week
# Procedure: as §1, with “All procedures involving mice were approved by the institutional animal care and use committee of Weill Cornell Medicine. 1 × 10^5 or 5 × 10^4 MDA-MB-231/TGL cells in 150 µl PBS were injected into the tail veins of female NSG mice at the age of 7-8 weeks (n=5/group for 1× 10^5 cells and n = 6/group for 5 × 10^4 cells). 1× 10^4 8988T/TGL cells in 100 µl PBS were injected into spleen of NSG mice at age of 7-8 weeks (n=4/group, male and female) to observe the liver metastasis (G.” left out
# Mouse tissues were removed and fixed in 10% buffered formalin overnight at room temperature. […] Tumor number and tumor size were quantified by scanning the whole tissue slide of each mouse under microscope. The size of tumor area of each tumor was measured by the cellSens imaging software (Olympus, Tokyo, Japan). […]
compound,measurement,setting,value
"[C-]#[O+] [CO, Carbon monoxide]",metastatic tumor burden in lung sections (histological analysis),"MDA-MB-231/TGL cells; 0.1 million MDA-MB-231/TGL cells tail vein, NSG mice, 250 ppm CO gas 3 hours daily, 23-day time point, vs control",significantly lower
same,appearance / signs of sickness of the mice,"MDA-MB-231/TGL cells; 0.1 million MDA-MB-231/TGL cells tail vein, 250 ppm CO 3 hours daily, control group lethargic after 23 days",looked healthy and had no signs of sickness
same,metastatic tumor burden in lung sections (histological analysis),"MDA-MB-231/TGL cells; 5 × 10^4 MDA-MB-231/TGL cells tail vein, 250 ppm CO 3 hours daily, 7 days/week, 25 days after the injection",significantly lower
same,bioluminescent signals (whole mice) over time,"MDA-MB-231/TGL cells; 5 × 10^4 MDA-MB-231/TGL cells tail vein, 250 ppm CO 3 hours daily, 7 days/week, imaging to 3 weeks, P = 0.0016, GEE method",significantly lower
same,metastatic tumor numbers in liver sections (histological analysis),"8988T/TGL cells; 250 ppm CO 3 hours daily, 19 days after the injection",significantly less
same,"bioluminescence over the time course, control vs CO group","8988T/TGL cells; 250 ppm CO gas 3 hours daily, P < 0.0001, GEE method",Significant difference

# From patent US20230346831A1, “METHODS FOR TREATING […] USING LOW DOSE CARBON MONOXIDE” (priority 2020, published 2023)
